Experimental data published in US20250161314A1, “METHOD FOR TREATMENT OR IMPROVEMENT OF NON-ALCOHOLIC FATTY LIVER DISEASE AND OBESITY BY LUMICHROME” (CATHAY GENERAL HOSPITAL, priority 2023, published 2025).
“Also recorded” adds a separate entry of the source.

What was measured:
Format in all cases: in vivo
C57BL/6 male mice [1] = experiment: Body size and liver appearance of mice after high-fat diet and lumichrome; conditions: HFD mice; for liver appearance (fatty liver): from 21th week of 32 weeks
Text: (§1) The serum was further analyzed by a dry chemistry auto analyzer (DRI-CHEM NX500i, Fujifilm, Tokyo, Japan) to measure the following blood biochemical values: AST, ALT and LDH. • (4) The mice in all groups were eventually sacrificed by excessive anesthesia, and both the epididymal fat and liver thereof were collected for a weight measurement, wherein the liver was divided into three parts, and a first part thereof, the first liver tissue, was further tested to determine the lipid amount in the liver by a lipid extraction kit (Chloroform-Free) (ab211044, Abeam, Cambridge, UK). • (5) A second part of the liver, the second liver tissue, was soaked in 4% formaldehyde (10% formalin) for frozen section, and the obtained liver tissue section was further subjected to (1) H/E staining and (2) Oil red O (ORO) staining for lipids (Bio-check laboratories, Taipei, Taiwan). • (6) A third part of the liver, the third liver tissue, was subjected to mRNA extraction, and the extracted mRNA was further subjected to quantitative polymerase chain reaction (qPCR). Further, (1) by qPCR with the primers of SEQ ID NO:1 and SEQ ID NO:2, the relative mRNA expression level of Acta2, which relates to liver fibrosis, in the liver in all groups was determined. (2) by qPCR with the primers of SEQ ID NO:3 and SEQ ID NO:4, the relative mRNA expression level of CD36, which affects fat uptake by liver cells, in all groups was determined; and (3) by qPCR with the primers of SEQ ID NO:5 and SEQ ID NO:6, the relative mRNA expression level of FABP1, which affects fat uptake by liver cells, in all groups was determined.

C57BL/6 male mice [2] = experiment: Weekly weight measurement (weight gain) of high-fat diet mice; conditions: HFD mice, 12 weeks
C57BL/6 male mice [3] = experiment: Grip strength test by grip strength meter; conditions: lumichrome 0.8 or 4 mg/kg/day oral gavage
C57BL/6 male mice [4] = experiment: Serum blood biochemical values AST, ALT and LDH by dry chemistry auto analyzer; conditions: HFD mice
Text: as §1
(§2) The present invention used a statistic and graphing software (prism ver. 6) for data analysis. The data of the numerical mean±standard deviation (SD) of the independent samples in all six groups were firstly obtained, and further subjected to One-way ANOVA for statistics. The post-hoc test was Tukey multiple comparison test. The differences between the groups were analyzed separately, and a p value less than 0.05 indicated a statistically significant difference.

C57BL/6 male mice [5] = experiment: Epididymal fat weight, liver weight and lipid amount in the liver; conditions: HFD mice
Text: as §1, §2

C57BL/6 male mice [6] = experiment: Liver sections, H/E staining and Oil red O staining for lipid droplets; conditions: HFD mice, H/E and ORO staining
Text: as §1, with “(2) by qPCR with the primers of SEQ ID NO:3 and SEQ ID NO:4, the relative mRNA expression level of CD36, which affects fat uptake by liver cells, in all groups was determined; and (3) by qPCR with the primers of SEQ ID NO:5 and SEQ ID NO:6, the relative mRNA expression level of FABP1, which affects fat uptake by liver cells, in all groups was determined.” left out

Acta2 = experiment: qPCR relative mRNA expression level of Acta2 in the liver; conditions: HFD mice
Text: as §1, with “(2) by qPCR with the primers of SEQ ID NO:3 and SEQ ID NO:4, the relative mRNA expression level of CD36, which affects fat uptake by liver cells, in all groups was determined; and (3) by qPCR with the primers of SEQ ID NO:5 and SEQ ID NO:6, the relative mRNA expression level of FABP1, which affects fat uptake by liver cells, in all groups was determined.” left out

CD36 = experiment: qPCR relative mRNA expression level of CD36 in the liver; conditions: HFD mice
Text: as §1, with “(2) by qPCR with the primers of SEQ ID NO:3 and SEQ ID NO:4, the relative mRNA expression level of CD36, which affects fat uptake by liver cells, in all groups was determined; and (3) by qPCR with the primers of SEQ ID NO:5 and SEQ ID NO:6, the relative mRNA expression level of FABP1, which affects fat uptake by liver cells, in all groups was determined.” left out

FABP1 = experiment: qPCR relative mRNA expression level of FABP1 in the liver; conditions: HFD mice
Text: as §1, with “(2) by qPCR with the primers of SEQ ID NO:3 and SEQ ID NO:4, the relative mRNA expression level of CD36, which affects fat uptake by liver cells, in all groups was determined; and (3) by qPCR with the primers of SEQ ID NO:5 and SEQ ID NO:6, the relative mRNA expression level of FABP1, which affects fat uptake by liver cells, in all groups was determined.” left out

[7] = lumichrome high dose 4 mg/kg/day oral gavage
[8] = lumichrome low dose 0.8 mg/kg/day oral gavage
[9] = lumichrome high dose 4 mg/kg/day oral gavage, 4 mg/kg/day

## Cc1cc2nc3[nH]c(=O)[nH]c(=O)c3nc2cc1C [lumichrome]
C57BL/6 male mice [1]; [7]
  body size of mice: more obvious efficacy to ameliorate the body size increase of mice
  liver appearance (fatty liver): improve the appearance of a fatty liver to regain a blood red color
C57BL/6 male mice [1]; [8]
  body size of mice: inhibit the increase of the body size of mice
  liver appearance (fatty liver): improve the appearance of a fatty liver and regain a red color
C57BL/6 male mice [2]; [9]
  weight gain: ameliorate weight gain increase of mice resulting from the high-fat diet; also recorded: no longer increased greatly at and after the fourth week after providing lumichrome
C57BL/6 male mice [2]; [8]
  weight gain: ameliorate weight gain increase of mice resulting from the high-fat diet
C57BL/6 male mice [3]; HFD mice
  grip strength (muscular endurance): did not cause a decrease in muscular endurance of mice
C57BL/6 male mice [3]; control diet mice
  grip strength (muscular endurance): did not cause a decrease in muscular endurance of mice
C57BL/6 male mice [4]; [7]
  ALT in the serum: lower than those of the High-fat diet group
  AST in the serum: lower than those of the High-fat diet group
  LDH in the serum: lower than those of the High-fat diet group
C57BL/6 male mice [4]; [8]
  ALT in the serum: lower than those of the High-fat diet group
  AST in the serum: lower than those of the High-fat diet group
  LDH in the serum: lower than those of the High-fat diet group
C57BL/6 male mice [5]; [7]
  epididymal fat weight: lower than those of the High-fat diet group
  lipid amount in the liver: lower than those of the High-fat diet group
  liver weight: lower than those of the High-fat diet group
C57BL/6 male mice [5]; [8]
  epididymal fat weight: lower than those of the High-fat diet group
  liver weight: lower than those of the High-fat diet group
C57BL/6 male mice [6]; [9]
  lipid droplets size and accumulation in the liver: smaller lipid droplets and less lipid droplets accumulation than those of the High-fat diet group; also recorded: significantly better than that in the HFD-lumichrome in low dose group
C57BL/6 male mice [6]; [8]
  lipid droplets size and accumulation in the liver: smaller lipid droplets and less lipid droplets accumulation than those of the High-fat diet group
Acta2; [7]
  relative mRNA expression level of Acta2 in the liver: less mRNA expression of Acta2 than that of the High-fat diet group
Acta2; [8]
  relative mRNA expression level of Acta2 in the liver: less mRNA expression of Acta2 than that of the High-fat diet group
CD36; [7]
  relative mRNA expression level of CD36 in the liver: less mRNA expression of CD36 and FABP1 than that of the High-fat diet group
CD36; [8]
  relative mRNA expression level of CD36 in the liver: less mRNA expression of CD36 and FABP1 than that of the High-fat diet group
FABP1; [7]
  relative mRNA expression level of FABP1 in the liver: less mRNA expression of CD36 and FABP1 than that of the High-fat diet group
FABP1; [8]
  relative mRNA expression level of FABP1 in the liver: less mRNA expression of CD36 and FABP1 than that of the High-fat diet group
